The test concerns Wnt activity (Sp5-Luc reporter, SW480 colon carcinoma cells). Put plainly: Wnt activity screening assay, Sp5-Luc reporter gene in SW480 cells. The format is cell-based. The conditions noted are these: Homo sapiens; for inhibition at 10 µM: given for EC50 >10 μM, read-out: percent inhibition at 10 μM; for EC50: overnight incubation. The text has this: The screening assay for Wnt activity is described as follows. Reporter cell lines can be generated by stably transducing cancer cell lines (e.g., colon cancer) or primary cells (e.g., IEC-6 intestinal cells) with a lentiviral construct that includes a Wnt-responsive promoter driving expression of the firefly luciferase gene.
SW480 colon carcinoma cells were transduced with a lentiviral vector expressing luciferase with a human Sp5 promoter consisting of a sequence of eight TCF/LEF binding sites. SW480 cells stably expressing the Sp5-Luc reporter gene and a hygromycin resistance gene were selected by treatment with 150 μg/mL of hygromycin for 7 days. These stably transduced SW480 cells were expanded in cell culture and used for all further screening activities. Each compound was dissolved in DMSO as a 10 mM stock and used to prepare compound source plates. Serial dilution (1:3, 10-point dose-response curves starting from 10 μM) and compound transfer was performed using the ECHO 550 (Labcyte, Sunnyvale, Calif.) into 384-well white solid bottom assay plates (Greiner Bio-One) with appropriate DMSO backfill for a final DMSO concentration of 0.1%. For Sp5-Luc reporter gene assays, the cells were plated at 4,000 cells/well in 384-well plates with medium containing 1% fetal bovine serum and incubated overnight at 37° C. and 5% CO2. Following incubation, 20 μl of BrightGlo luminescence reagent (Promega) was added to each well of the 384-well assay plates. The plates were placed on an orbital shaker for 2 min and then luminescence was quantified using the Envision (Perkin Elmer) plate reader. Readings were normalized to DMSO only treated cells, and normalized activities were utilized for EC50 calculations using the dose-response log (inhibitor) vs. response—variable slope (four parameters) nonlinear regression feature available in GraphPad Prism 5.0 (or Dotmatics). For EC50 of >10 μM, the percent inhibition at 10 μM is provided.
For orientation: In a reporter assay the amount or activity of a reporter protein is the signal.

The inhibition is how much of the control response was suppressed. As a reminder, the EC50 is the concentration at which the effect is half-maximal. Low readings indicate higher potency in that assay, high ones lower potency in that assay. On to `c1cc(N2CCCCC2)c2cc(-c3n[nH]c4ncc(-c5cncc(CN6CCCC6)c5)cc34)[nH]c2n1` [Compound 182, 3-(4-(Piperidin-1-yl)-1H-pyrrolo[2,3-b]pyridin-2-yl)-5-(5-(pyrrolidin-1-ylmethyl)pyridin-3-yl)-1H-pyrazolo[3,4-b]pyridine], for which the inhibition at 10 µM worked out at 7.1% and the EC50 was above 10 µM.
The corresponding values for `CCCC(=O)Nc1cncc(-c2cnc3[nH]nc(-c4cc5c(N6CCCCC6)ccnc5[nH]4)c3c2)c1` [Compound 185, N-(5-(3-(4-(Piperidin-1-yl)-1H-pyrrolo[2,3-b]pyridin-2-yl)-1H-pyrazolo[3,4-b]pyridin-5-yl)pyridin-3-yl)butyramide] are 10.9% and above 10 µM.
On to `c1ncc(-c2cnc3[nH]nc(-c4cc5c(N6CCCCC6)ccnc5[nH]4)c3c2)cn1` [Compound 195, 3-(4-(Piperidin-1-yl)-1H-pyrrolo[2,3-b]pyridin-2-yl)-5-(pyrimidin-5-yl)-1H-pyrazolo[3,4-b]pyridine], for which the inhibition at 10 µM is 6.9% and the EC50 was above 10 µM.
Turning to `CN1CCN(c2ccnc3[nH]c(-c4n[nH]c5ncc(-c6cncc(NC(=O)C7CCCCC7)c6)cc45)cc23)CC1` [Compound 247, N-(5-(3-(4-(4-Methylpiperazin-1-yl)-1H-pyrrolo[2,3-b]pyridin-2-yl)-1H-pyrazolo[3,4-b]pyridin-5-yl)pyridin-3-yl)cyclohexanecarboxamide], the inhibition at 10 µM was 6.4% and the 50% effective concentration (EC50) was above 10 µM.
The like results for `c1cnc2[nH]c(-c3n[nH]c4ncc(-c5ccncc5)cc34)cc2c1` [Compound 270, 5-(Pyridin-4-yl)-3-(1H-pyrrolo[2,3-b]pyridin-2-yl)-1H-pyrazolo[3,4-b]pyridine] were, in that order, 0% and above 10 µM.
The corresponding values for `O=C(Nc1cncc(-c2cnc3[nH]nc(-c4cc5cccnc5[nH]4)c3c2)c1)C1CCCC1` [Compound 274, N-(5-(3-(1H-Pyrrolo[2,3-b]pyridin-2-yl)-1H-pyrazolo[3,4-b]pyridin-5-yl)pyridin-3-yl)cyclopentanecarboxamide] are 40.3% and above 10 µM.
The corresponding values for `CC(C)(C)CC(=O)Nc1cncc(-c2cnc3[nH]nc(-c4cc5c(-c6ccoc6)ccnc5[nH]4)c3c2)c1` [Compound 324, N-(5-(3-(4-(Furan-3-yl)-1H-pyrrolo[2,3-b]pyridin-2-yl)-1H-pyrazolo[3,4-b]pyridin-5-yl)pyridin-3-yl)-3,3-dimethylbutanamide] are 4.2% and above 10 µM.
Regarding `CN(C)c1cncc(-c2cnc3[nH]nc(-c4cc5c(-c6cccs6)ccnc5[nH]4)c3c2)c1` [Compound 343, N,N-Dimethyl-5-(3-(4-(thiophen-2-yl)-1H-pyrrolo[2,3-b]pyridin-2-yl)-1H-pyrazolo[3,4-b]pyridin-5-yl)pyridin-3-amine], the inhibition at 10 µM stood at 18.3% and the EC50 is above 10 µM.
`O=C(Nc1cncc(-c2cnc3[nH]nc(-c4cc5c(-c6cccs6)ccnc5[nH]4)c3c2)c1)C1CC1` [Compound 356, N-(5-(3-(4-(Thiophen-2-yl)-1H-pyrrolo[2,3-b]pyridin-2-yl)-1H-pyrazolo[3,4-b]pyridin-5-yl)pyridin-3-yl)cyclopropanecarboxamide] returned a concentration for a half-maximal effect (EC50) of 6.37 µM.
On to `CN(C)CCNc1cc(F)cc(-c2ccnc3[nH]c(-c4n[nH]c5ncc(-c6cncc(NC(=O)C(C)(C)C)c6)cc45)cc23)c1` [Compound 456, N-(5-(3-(4-(3-((2-(Dimethylamino)ethyl)amino)-5-fluorophenyl)-1H-pyrrolo [2,3-b]pyridin-2-yl)-1H-pyrazolo[3,4-b]pyridin-5-yl)pyridin-3-yl)pivalamide], for which the inhibition at 10 µM is 42.4% and the concentration for a half-maximal effect (EC50) is above 10 µM.

Values taken from US10285983B2, “3-(1H-pyrrolo[2,3-B]pyridin-2-yl)-1H-pyrazolo[3,4-B] pyridines and therapeutic uses thereof” (Samumed, LLC, priority 2015, dated 2019).
